What was measured:
[1] = system: Corynebacterium xerosis CIP 5216; assay: killing test: number of viable micro-organisms after contact; format: cell-based; details: 0.5%; for viable micro-organisms, CFU/g of preparation: 35° C., inoculum 1.4E7
Description: The anti-microbial activity of Tryptophan ethyl ester hydrochloride (compound 1) was valuated in vitro on Corynebacterium xerosis (killing test, quantity of micro-organisms killed). Purpose of test: Quantitative determination of the activity of a cosmetic starting material with respect to Corynebacterium xerosis, a micro-organism involved in the phenomena linked to underarm odor. This micro-organism is placed in optimum growth conditions. Protocol: The model strain used is: Corynebacterium xerosis CIP 5216 (bacteria) The strain is placed into contact with the starting material to be tested in a suitable liquid culture medium. The dilutions of the compounds under evaluation are performed in agar at 1:1000, making it possible, for dispersible compounds under evaluation, to do away with the use of a solvent which could introduce bias in the evaluation of the compounds. In parallel, a growth control, in which the starting material to be tested is replaced with diluent, is prepared in the same conditions. The samples are placed in a rotating incubator at 35° C. and maintained under stirring for the entire duration of the test. After 2, 6 and 24 hours of contact, the number of viable micro-organisms remaining in the mixture is evaluated. The results are expressed as a logarithm of the number of micro-organisms per milliliter of mixture.

[2] = ex-vivo olfactory evaluation test on incubated sweat; details: for effect on the unpleasant odor: compared to the negative control (incubated sweat alone), concentrations as tested; for comparison of anti-odor activity, compound 1 versus ethyl N-acetyl-L-tryptophanate: equivalent dose, several concentrations (0.1%, 0.5%, 1%)
Protocol: The deodorant activity was evaluated in the ex-vivo olfactory evaluation test, on incubated sweat.
Tryptophan ethyl ester hydrochloride (compound 1 of the example A-1) was evaluated at various concentrations in a pool of fresh sweat.
The samples were prepared in 10-ml headspace screw bottles, they are incubated at 35° C. for 24 h under stirring. A sample of sweat with 1 mg of anhydrous aluminum hydroxychloride (ACH) in 1 ml of sweat (i.e. 0.1%) is incubated in order to serve as a positive reference (little odor) and a sample of sweat alone is incubated to serve as a negative reference (unpleasant odor).
The samples after incubation are evaluated olfactively by a panel of several people in a blind test on the headspace bottles. The incubated samples of sweat containing ACH and sweat alone are evaluated at the same time in order to be used respectively as […].
3 parameters are evaluated on a scale from 0 to 10: • The residual of the unpleasant odor with 0 for not very unpleasant (positive reference) and 10 for very unpleasant odor (negative reference). • The total power of the odor with 0 for little power and 10 for very powerful. • The pleasantness of the odor with 0 for not very pleasant and 10 for very pleasant.

[3] = Table 1, 0.1% in sweat, 35° C. 24 h, scale 0 to 10, panel of 6
[4] = Table 1, 0.5% in sweat, scale 0 to 10, panel of 6
[5] = Table 1, 1% in sweat, scale 0 to 10, panel of 6
[6] = Table 2, 0.1% in sweat, scale 0 to 10, panel of 6
[7] = Table 2, 0.5% in sweat, scale 0 to 10, panel of 6
[8] = Table 2, 1% in sweat, scale 0 to 10, panel of 6
[9] = Table 4, 0.3% in incubated sweat, scale 0 to 10
[10] = Table 5, 0.5% in incubated sweat, scale 0 to 10
[11] = Table 3, 0.5% in incubated sweat, scale 0 to 10, panel of 6
[12] = incubated sweat, release of odorous volatile molecules
[13] = Table 3, positive reference, 1 mg in 1 ml of sweat (0.1%), scale 0 to 10
[14] = Table 4, positive reference, 1 mg in 1 ml of sweat (0.1%), scale 0 to 10
[15] = Table 5, positive reference, 1 mg in 1 ml of sweat (0.1%), scale 0 to 10

## CCOC(=O)[C@@H](N)Cc1c[nH]c2ccccc12.Cl [Compound 1, L-tryptophan ethyl ester chlorhydride]
[1]; in terms of the growth control
  anti-microbial activity on C. xerosis: excellent anti-microbial activity
[1]; 2 hours of contact
  viable micro-organisms, CFU/g of preparation: 4.6E3 CFU/g of preparation
[1]; 6 hours of contact
  viable micro-organisms, CFU/g of preparation: 4.0E1 CFU/g of preparation
[1]; 24 hours of contact
  viable micro-organisms, CFU/g of preparation: <20 CFU/g of preparation
[1]; after 2 h of contact
  reduction in terms of the growth control: 3.3 Log Units
[1]; after 6 h of contact
  reduction in terms of the growth control: 5.4 Log
[1]; after 24 h of contact
  reduction in terms of the growth control: greater than or equal to 6.6 Log
[2]; [3]
  Power: 3.2
  Residual unpleasant odor: 3.4
[2]; [4]
  Power: 2.8
  Residual unpleasant odor: 3.2
[2]; [5]
  Power: 1.4
  Residual unpleasant odor: 0.6
[2]; [6]
  Power: 3.2
  Residual unpleasant odor: 3.4
[2]; [7]
  Power: 2.8
  Residual unpleasant odor: 3.2
[2]; [8]
  Power: 1.4
  Residual unpleasant odor: 0.6
[2]; [9]
  Pleasantness of the odor: 5.3
  Power: 3
  Residual unpleasant odor: 1.7
[2]; [10]
  Pleasantness of the odor: 5.7
  Power: 3.3
  Residual unpleasant odor: 1.3
[2]
  effect on the unpleasant odor: clear decrease in the unpleasant odor
[2]; incubated sweat
  comparison of anti-odor activity, compound 1 versus ethyl N-acetyl-L-tryptophanate: superiority
[2]; incubated sweat, listed as Tryptophan ester hydrochloride
  comparison of anti-odor activity, compound 1 versus ethyl N-acetyl-L-tryptophanate: better anti-odor activity than the Ethyl N-acetyl-L-tryptophanate

## CCOC(=O)[C@H](Cc1c[nH]c2ccccc12)NC(C)=O [Compound 2, ethyl N-Acetyl-L-tryptophanate, reference compound]
[2]; [6]
  Power: 6.2
  Residual unpleasant odor: 6.8
[2]; [7]
  Power: 6.8
  Residual unpleasant odor: 7.5
[2]; [8]
  Power: 6.6
  Residual unpleasant odor: 7
[2]; incubated sweat
  comparison of anti-odor activity, compound 1 versus ethyl N-acetyl-L-tryptophanate: not as effective as Tryptophan ethyl ester hydrochloride

## CC/C=C\CCOC(=O)[C@@H](N)Cc1c[nH]c2ccccc12 [Compound 3, Tryptophan cis-3-hexenyl ester]
[2]; [11]
  Pleasantness of the odor: 7.8
  Power: 6.8
  Residual unpleasant odor: 1
[2]
  effect on the unpleasant odor: effect of reducing the unpleasant odor
[2]; [12]
  Pleasantness of the odor: contribute to the pleasantness of the odor

## CC/C=C\CCOC(=O)[C@@H](N)Cc1c[nH]c2ccccc12.Cl [Compound 4, Tryptophan cis-3-hexenyl ester hydrochloride]
[2]; [11]
  Pleasantness of the odor: 6
  Power: 7
  Residual unpleasant odor: 2.5
[2]
  effect on the unpleasant odor: effect of reducing the unpleasant odor
[2]; [12]
  Pleasantness of the odor: contribute to the pleasantness of the odor

## C=CC(C)CCCC(C)(C)OC(=O)[C@@H](N)Cc1c[nH]c2ccccc12 (stereo partly drawn) [Compound 5, Tryptophan dihydromyrcenyl ester]
[2]; [11]
  Pleasantness of the odor: 5.8
  Power: 5.5
  Residual unpleasant odor: 2.5
[2]
  effect on the unpleasant odor: effect of reducing the unpleasant odor
[2]; [12]
  Pleasantness of the odor: contribute to the pleasantness of the odor

## CCCCCCCCOC(=O)[C@@H](N)Cc1c[nH]c2ccccc12.Cl [Compound 6, Tryptophan octyl ester hydrochloride]
[2]; [9]
  Pleasantness of the odor: 7
  Power: 7
  Residual unpleasant odor: 0.3
[2]; [10]
  Pleasantness of the odor: 7.7
  Power: 6.3
  Residual unpleasant odor: 0.3
[2]
  effect on the unpleasant odor: effect of reducing the unpleasant odor
[2]; [12]
  Pleasantness of the odor: generates a pleasant odor

## N[C@@H](Cc1c[nH]c2ccccc12)C(=O)OCc1ccccc1 [Compound 7, Tryptophan benzyl ester]
[2]; [10]
  Pleasantness of the odor: 3.7
  Power: 4.3
  Residual unpleasant odor: 3
[2]
  effect on the unpleasant odor: effect on the reduction of the unpleasant odor
[2]; [12]
  Pleasantness of the odor: generate a pleasant odor

## CC(C)(C)OC(=O)[C@@H](N)Cc1c[nH]c2ccccc12.Cl [Compound 8, Tryptophan tertiobutyl ester hydrochloride]
[2]; [10]
  Pleasantness of the odor: 5.7
  Power: 4
  Residual unpleasant odor: 1.7
[2]
  effect on the unpleasant odor: effect on the reduction of the unpleasant odor
[2]; [12]
  Pleasantness of the odor: generate a pleasant odor

## anhydrous aluminum hydroxychloride [ACH, reference compound]
[2]; [3]
  Power: 1.6
  Residual unpleasant odor: 0.5
[2]; [6]
  Power: 1.6
  Residual unpleasant odor: 0.5
[2]; [13]
  Pleasantness of the odor: 4
  Power: 0.8
  Residual unpleasant odor: 0.3
[2]; [14]
  Pleasantness of the odor: 3.7
  Power: 2.7
  Residual unpleasant odor: 2.7
[2]; [15]
  Pleasantness of the odor: 5
  Power: 2
  Residual unpleasant odor: 1.7
